What all share (type): biochemical
For test [1], the system named is alkaline pullulanase B (having α-amylase activity) from Bacillus sp. KSM-AP 1378 (FERM BP-3048), pullulanase activity. The test is described as follows: Effects of chelating agents on pullulanase activity of alkaline pullulanase B. The conditions noted are these: for Effect of chelating agent on pullulanase activity: chelating agent 10 mM; for Residual activity (%), Pullulanase activity: compound 10 mM, no addition = 100. As for the experimental part: (§1) 0.1 ml of enzyme solution was added to 0.9 ml of a substrate solution consisting of a buffer solution and pullulan (final concentration in the reaction system was 0.25%), and the mixture was reacted at 40° C. for 30 minutes. After the reaction, reducing sugar was quantitatively determined by a method of the 3,5-dinitrosalicylic acid (DNS).
(§2) Specifically, 1.0 ml of DNS reagent was added to 1.0 ml of reaction mixture, and the mixture was heated at 100° C. for 5 minutes to develop color. After cooling, the mixture was diluted by adding 4.0 ml of deionized water. This solution was subjected to colorimetric quantitative analysis at a wave length of 535 nm. One unit (1U) of enzyme activity was defined as the amount of enzyme which released 1 μmol of reducing sugar (as glucose) per minute.
Same procedures were followed as mentioned in the section of alkaline pullulanase A.
The α-amylase activity which had been adversely affected by chelating agents can be restored by the addition of Ca^2+ ions as shown in Table 3.

The subject of test [2] is alkaline pullulanase A from Bacillus sp. KSM-AP 1876 (FERM BP-3049). The test is described as follows: Effects of chelating agents on pullulanase activity of alkaline pullulanase A. As to conditions: substrate pullulan. As for the experimental part:
as §1, §2

In test [3] the test system is alkaline pullulanase B (having α-amylase activity) from Bacillus sp. KSM-AP 1378 (FERM BP-3048), α-amylase activity. The test is described as follows: Effects of chelating agents on α-amylase activity of alkaline pullulanase B. How it is done: as §2, with “0.1 ml of enzyme solution was added to 0.9 ml of a substrate solution consisting of a buffer solution and soluble starch (final concentration in the reaction system was 0.25%), and the mixture was reacted at 50° C. for 15 minutes. After the reaction, reducing sugar was quantitatively determined by means of a DNS method. Specifically,” for “Specifically,”, “at” for “at a”

Consider `O=C(O)CN(CCN(CC(=O)O)CC(=O)O)CC(=O)O` [EDTA], for which the “Effect of chelating agent on pullulanase activity” value (from here on “Effect … on pullulanase activity”) is “almost no adverse effect” in test [1] and “almost no adverse effects” in test [2] (chelating agent 10 mM). Also, the “Residual activity (%), Pullulanase activity” value in test [1] is 77%.

On to `O=C(O)CN(CCOCCOCCN(CC(=O)O)CC(=O)O)CC(=O)O` [EGTA], for which, in test [1], the “Effect … on pullulanase activity” value is “almost no adverse effect” and the “Residual activity (%), Pullulanase activity” value worked out at 65%. Moreover, the “Effect of chelating agent on α-amylase activity” value in test [3] (chelating agent 10 mM, restored by addition of Ca2+ ions) is on record as “adversely affected significantly”. In test [3] (compound 10 mM, then Ca2+ ions added again (values in parentheses)), the “Residual activity (%), α-Amylase activity, when Ca2+ ions were added again” value is listed as 91%. In addition, the “Residual activity (%), α-Amylase activity” value in test [3] (compound 10 mM, no addition = 100) is reported as 18%. Besides, the “Effect … on pullulanase activity” value in test [2] (chelating agent 10 mM) is recorded as “almost no adverse effects”.

In the case of `O=C(O)CC(O)(CC(=O)O)C(=O)O` [citric acid], the “Effect … on pullulanase activity” value in test [2] (chelating agent 0.05% by weight) was “almost no adverse effects”.
